Experimental findings from patent US5459063A, “Plasmodium falciparum ribonucleotide reductase DNA” (priority 1993, dated 1995) are described below.

For assay [1], the target named is T1, calf thymus/mouse ribonucleotide reductase (mammalian RR) (Bos taurus, UniProt Q32LP1).
T1 sequence (Q32LP1 1-791): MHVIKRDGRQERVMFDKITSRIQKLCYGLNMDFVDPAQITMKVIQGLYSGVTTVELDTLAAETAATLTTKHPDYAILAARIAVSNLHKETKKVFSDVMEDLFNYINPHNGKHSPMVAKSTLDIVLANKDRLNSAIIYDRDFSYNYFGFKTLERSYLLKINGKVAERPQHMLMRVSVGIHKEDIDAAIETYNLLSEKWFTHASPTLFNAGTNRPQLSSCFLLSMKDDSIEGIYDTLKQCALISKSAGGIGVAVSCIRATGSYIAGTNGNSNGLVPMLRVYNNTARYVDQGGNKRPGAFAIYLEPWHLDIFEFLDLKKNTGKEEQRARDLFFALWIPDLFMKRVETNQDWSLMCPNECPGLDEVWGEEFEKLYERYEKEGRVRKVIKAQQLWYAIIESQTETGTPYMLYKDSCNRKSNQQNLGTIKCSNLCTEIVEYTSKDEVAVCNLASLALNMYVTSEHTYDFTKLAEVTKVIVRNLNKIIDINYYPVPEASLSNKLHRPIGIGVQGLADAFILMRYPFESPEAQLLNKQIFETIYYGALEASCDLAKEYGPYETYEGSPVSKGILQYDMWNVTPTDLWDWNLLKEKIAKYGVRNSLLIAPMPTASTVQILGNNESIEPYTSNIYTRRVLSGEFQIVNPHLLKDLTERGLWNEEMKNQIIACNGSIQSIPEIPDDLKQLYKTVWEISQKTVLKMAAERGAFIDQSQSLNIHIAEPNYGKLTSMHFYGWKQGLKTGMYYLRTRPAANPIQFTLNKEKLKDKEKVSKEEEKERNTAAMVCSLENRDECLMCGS
The assay can be described thus: biochemical. The note with it: for Percent RI (percent relative inhibitory potency): 100 × (IC50 Ac(FTLDADF)/IC50 peptide analog). An excerpt:
From two to four assays were run

Where two headings read alike, the source gives them in different places. Square brackets hold non-standard residues; d marks the D form. Ends that are not written are not given here. Peptide text beside a SMILES is read from it. Phe(4-N3) = [N-]=[N+]=Nc1ccc(C[C@H](N)C(=O)O)cc1; Phe(4-NH2) = Nc1ccc(C[C@H](N)C(=O)O)cc1 Where only a bound is given, the exact number is not on record here.

Consider `CC(=O)N[C@@H](Cc1ccc(N)cc1)C(=O)N[C@H](C(=O)N[C@@H](CC(C)C)C(=O)N[C@@H](CC(=O)O)C(=O)N[C@@H](C)C(=O)N[C@@H](CC(=O)O)C(=O)N[C@@H](Cc1ccccc1)C(=O)O)[C@@H](C)O` [Peptide 9, Ac- (F(4'-NH2)TLDADF)] (Ac-[Phe(4-NH2)]TLDADF-OH), for which the IC50 in assay [1] is 100 µM. Besides, the “Percent RI (percent relative inhibitory potency)” value in assay [1] (Table 4, mammalian RR) is given as 10%.
Take `CC(=O)N[C@@H](Cc1ccc(N=[N+]=[N-])cc1)C(=O)N[C@H](C(=O)N[C@@H](CC(C)C)C(=O)N[C@@H](CC(=O)O)C(=O)N[C@@H](C)C(=O)N[C@@H](CC(=O)O)C(=O)N[C@@H](Cc1ccccc1)C(=O)O)[C@@H](C)O` [Peptide 10, Ac- (F(4'-N3)TLDADF)] (Ac-[Phe(4-N3)]TLDADF-OH): the IC50 in assay [1] is 100 µM. For the same molecule, the “Percent RI (percent relative inhibitory potency)” value in assay [1] (Table 4, mammalian RR) turned out to be 10%.
For Ac- (FTFTADF) [Peptide 14], in assay [1] (Table 4, mammalian RR), the “Percent RI (percent relative inhibitory potency)” value was 18 ± 4.2%. In assay [1] (read-out: IC50, concentration of peptide producing 50% inhibition of activity, Table 4, mammalian RR, Dixon plots of 4-6 concentration points, ranges are two independent determinations on different days), the IC50 fell in the range of 48 to 58 µM.
Ac-(FTFTADF) (peptide) gave a Percent RI (percent relative inhibitory potency), mammalian RR activity with calf thymus R1 (calf) of 18%.
Still for that read-out and setting: in the case of Ac-(FTLDALF) (peptide) it was 35%.
Ac-FALDADF [Peptide 12, Ac- (FALDADF)] yielded an IC50 in assay [1] of 35 to 40 µM. The “Percent RI (percent relative inhibitory potency)” value in assay [1] (Table 4, mammalian RR) is 24 ± 4.1%.
As for “Ac-FCLNTEF [Ac-(SEQ ID NO:7), Ac- (FCLNTEF)]”, the IC50 in assay [1] (IC50 on mammalian RR activity, Example 54 text, peptide bound to purified calf thymus R1 before adding recombinant mouse R2) turned out to be 160 µM. Further, the “times less potent an inhibitor on mammalian RR activity than Ac-(SEQ ID NO:6)” value in assay [1] (relative to Ac-(SEQ ID NO:6)) is 8-16 times.
In assay [1], Ac-FLDADF [Peptide 25, Ac- (FLDADF)] returned an IC50 of 412 µM. Besides, the “Percent RI (percent relative inhibitory potency)” value in assay [1] (Table 4, mammalian RR) is given as 2.5%.
In assay [1], Ac-FSLDADF [Peptide 11, Ac- (FSLDADF)] registered an IC50 of 40 to 42 µM. For the same molecule, the “Percent RI (percent relative inhibitory potency)” value in assay [1] (Table 4, mammalian RR) was determined as 25 ± 1.1%.
In turn, Ac-FTADADF [Peptide 15, Ac- (FTADADF)] returned an IC50 in assay [1] of 207 µM. For the same molecule, the “Percent RI (percent relative inhibitory potency)” value in assay [1] (Table 4, mammalian RR) is listed as 4.9 ± 0.60%.
For Ac-FTFNEDF [Peptide 30, Ac- (FTFNEDF)], in assay [1], the IC50 worked out at 100 µM.
In assay [1], Ac-FTLAADF [Peptide 17, Ac- (FTLAADF)] showed an IC50 of 286 to 336 µM. Besides, in assay [1] (Table 4, mammalian RR), the “Percent RI (percent relative inhibitory potency)” value amounted to 2.9 ± 0.4%.
The like results for Ac-FTLDAAF [Peptide 23, Ac- (FTLDAAF)] were, in that order, 34 to 35 µM and 28 ± 1.3%.
The matching figures for Ac-FTLDADFAA [Peptide 28]: 500 µM and 2.1%.
The matching figures for Ac-FTLDADL [Peptide 24, Ac- (FTLDADL)]: more than 400 µM and less than 3%.
Ac-FTLDAEF [Peptide 20, Ac- (FTLDAEF)]: the IC50 in assay [1] lay within 450 to 620 µM. Also, the “Percent RI (percent relative inhibitory potency)” value in assay [1] (Table 4, mammalian RR) is reported as 1.7 ± 0.15%.
The like results for Ac-FTLDALF [Peptide 22, Ac- (FTLDALF)] were, in that order, 29 to 30 µM and 35 ± 5.0%.
On to Ac-FTLDANF [Peptide 21, Ac- (FTLDANF)], for which the IC50 in assay [1] is 32 to 38 µM. Moreover, in assay [1] (Table 4, mammalian RR), the “Percent RI (percent relative inhibitory potency)” value amounted to 23 ± 1.0%.
The like results for Ac-FTLDDF [Peptide 26, Ac- (FTLDDF)] were, in that order, 322 µM and 3%.
Ac-FTLDF [Peptide 27, Ac- (FTLDF)] yielded an IC50 in assay [1] of 364 to 460 µM. Also, the “Percent RI (percent relative inhibitory potency)” value in assay [1] (Table 4, mammalian RR) is listed as 2.5 ± 0.18%.
For the molecule Ac-FTLDGDF [Peptide 18, Ac- (FTLDGDF)], the IC50 in assay [1] lay in the range of 110 to 230 µM. For the same molecule, in assay [1] (Table 4, mammalian RR), the “Percent RI (percent relative inhibitory potency)” value worked out at 9 ± 0.6%.
Ac-FTLDLDF [Peptide 19, Ac- (FTLDLDF)] gave an IC50 in assay [1] of 28 µM. Besides, in assay [1] (Table 4, mammalian RR), the “Percent RI (percent relative inhibitory potency)” value was 35%.
In assay [1], Ac-FTLNADF [Peptide 16, Ac- (FTLNADF)] came in with an IC50 of 25 to 29 µM. For the same molecule, the “Percent RI (percent relative inhibitory potency)” value in assay [1] (Table 4, mammalian RR) is 40 ± 2.4%.
In the case of Ac-FTVDADF [Peptide 13, Ac- (FTVDADF)], the IC50 in assay [1] stood at 30 µM. In addition, the “Percent RI (percent relative inhibitory potency)” value in assay [1] (Table 4, mammalian RR) amounted to 35%.
Ac-LDADF [Peptide 7, Ac- (LDADF)] showed an IC50 in assay [1] of more than 400 µM. Also, the “Percent RI (percent relative inhibitory potency)” value in assay [1] (Table 4, mammalian RR) was less than 3%.
The matching figures for Ac-LTLDADF [Peptide 8, Ac- (LTLDADF)]: more than 400 µM and less than 3%.
The like results for Ac-NSFTLDADF [Peptide 1] were, in that order, 9 to 15 µM and 100%.
The molecule Ac-SFTLDADF [Peptide 2] returned an IC50 in assay [1] of 8 to 20 µM. In assay [1] (Table 4, mammalian RR), the “Percent RI (percent relative inhibitory potency)” value is listed as 100%.
The like results for Ac-TLDADF [Peptide 6, Ac- (TLDADF)] were, in that order, more than 400 µM and less than 3%.
The matching figures for FTLDADF [Peptide 5, FTLDADF]: more than 400 µM and less than 3%.
Take SFTLDADF (peptide): in the assay with calf thymus R1 (calf), the IC50, inhibition of mammalian RR activity worked out at 80 µM and the Percent RI (percent relative inhibitory potency), mammalian RR activity stood at 25%.
Take SFTLDADF [Peptide 3]: the IC50 in assay [1] was determined as 80 µM. Besides, in assay [1] (Table 4, mammalian RR), the “Percent RI (percent relative inhibitory potency)” value was 25%.

B1: Ac-(FTVDADF) (peptide)
peptide: Ac-FTVDADF
Take B1: in the assay with calf thymus R1 (calf), the IC50, inhibition of mammalian RR activity was found to be 30 µM and the Percent RI (percent relative inhibitory potency), mammalian RR activity was 35%.

B2: Ac-(FTLNADF) (peptide)
peptide: Ac-FTLNADF
B2: the Percent RI (percent relative inhibitory potency), mammalian RR activity in the assay with calf thymus R1 (calf) stood at 40%.

B3: Ac-(TLDADF) (peptide)
peptide: Ac-TLDADF
In the assay with calf thymus R1 (calf), B3 returned an IC50, inhibition of mammalian RR activity of more than 400 µM and a Percent RI (percent relative inhibitory potency), mammalian RR activity of less than 3%.

B4: Ac-(F(4'-NH2)TLDADF) (peptide)
peptide: Ac-[Phe(4-NH2)]TLDADF
For the molecule B4, in the assay with calf thymus R1 (calf), the IC50, inhibition of mammalian RR activity came to 100 µM and the Percent RI (percent relative inhibitory potency), mammalian RR activity was 10%.

B5: Ac-(F(4'-N3)TLDADF) (peptide)
peptide: Ac-[Phe(4-N3)]TLDADF
In the assay with calf thymus R1 (calf), B5 showed an IC50, inhibition of mammalian RR activity of 100 µM and a Percent RI (percent relative inhibitory potency), mammalian RR activity of 10%.

B6: Ac-(LDADF) (peptide)
peptide: Ac-LDADF
In the assay with calf thymus R1 (calf), B6 returned an IC50, inhibition of mammalian RR activity of more than 400 µM and a Percent RI (percent relative inhibitory potency), mammalian RR activity of less than 3%.

B7: Ac-(FSLDADF) (peptide)
peptide: Ac-FSLDADF
Molecule B7 yielded a Percent RI (percent relative inhibitory potency), mammalian RR activity with calf thymus R1 (calf) of 25%.

B8: Ac-(LTLDADF) (peptide)
peptide: Ac-LTLDADF
As for B8, in the assay with calf thymus R1 (calf), the IC50, inhibition of mammalian RR activity was more than 400 µM and the Percent RI (percent relative inhibitory potency), mammalian RR activity is less than 3%.

B9: Ac-(FTLDLDF) (peptide)
peptide: Ac-FTLDLDF
As for B9, in the assay with calf thymus R1 (calf), the IC50, inhibition of mammalian RR activity worked out at 28 µM and the Percent RI (percent relative inhibitory potency), mammalian RR activity came to 35%.

B10: Ac-(FTLDANF) (peptide)
peptide: Ac-FTLDANF
B10: in the assay with calf thymus R1 (calf), the Percent RI (percent relative inhibitory potency), mammalian RR activity came out at 23%.

B11: Ac-(FTLAADF) (peptide)
peptide: Ac-FTLAADF
Turning to B11, the Percent RI (percent relative inhibitory potency), mammalian RR activity with calf thymus R1 (calf) was 2.9%.

B12: Ac-(FTLDGDF) (peptide)
peptide: Ac-FTLDGDF
Turning to B12, the Percent RI (percent relative inhibitory potency), mammalian RR activity with calf thymus R1 (calf) is 9%.

B13: Ac-(SFTLDADF) (peptide)
peptide: Ac-SFTLDADF
For the molecule B13, in the assay with calf thymus R1 (calf), the Percent RI (percent relative inhibitory potency), mammalian RR activity came out at 100%.

B14: Ac-(FTADADF) (peptide)
peptide: Ac-FTADADF
For B14, in the assay with calf thymus R1 (calf), the IC50, inhibition of mammalian RR activity was 207 µM and the Percent RI (percent relative inhibitory potency), mammalian RR activity was found to be 4.9%.

B15: FTLDADF (peptide)
peptide: FTLDADF
In the assay with calf thymus R1 (calf), B15 came in with an IC50, inhibition of mammalian RR activity of more than 400 µM and a Percent RI (percent relative inhibitory potency), mammalian RR activity of less than 3%.

B16: Ac-(FTLDAEF) (peptide)
peptide: Ac-FTLDAEF
For the molecule B16, the Percent RI (percent relative inhibitory potency), mammalian RR activity with calf thymus R1 (calf) was 1.7%.

B17: Ac-(FALDADF) (peptide)
peptide: Ac-FALDADF
Consider B17, for which the Percent RI (percent relative inhibitory potency), mammalian RR activity in the assay with calf thymus R1 (calf) worked out at 24%.
